Laboratory results taken from article PMC9234961 (Journal of Medicinal Chemistry, 2022).

Key:
[1] = Microsomal clearance assay (MLM); type: in vitro ADME; conditions: female, CD1, pH 7.4; mouse liver microsomes, 1 μM compound
Outline: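 Compound (1 µM) was incubated at 37 °C with female CD1 mouse, female Sprague–Dawley rat or mixed-gender human liver microsomes (0.5 mg/mL protein) in 10 mmol/L phosphate, pH 7.4, with 3 mmol/L MgCl2. After 10 min preincubation, 1 mmol/L NADPH started the reaction. Samples taken up to 30 min were methanol-quenched and analysed by LC-MS.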

ADRA1A = biological target: T1, ADRA1A (Homo sapiens, UniProt P35348); experiment: SAFETYScan GPCR Calcium Flux, Agonist; type: cell-based
T1 sequence (P35348 1-466): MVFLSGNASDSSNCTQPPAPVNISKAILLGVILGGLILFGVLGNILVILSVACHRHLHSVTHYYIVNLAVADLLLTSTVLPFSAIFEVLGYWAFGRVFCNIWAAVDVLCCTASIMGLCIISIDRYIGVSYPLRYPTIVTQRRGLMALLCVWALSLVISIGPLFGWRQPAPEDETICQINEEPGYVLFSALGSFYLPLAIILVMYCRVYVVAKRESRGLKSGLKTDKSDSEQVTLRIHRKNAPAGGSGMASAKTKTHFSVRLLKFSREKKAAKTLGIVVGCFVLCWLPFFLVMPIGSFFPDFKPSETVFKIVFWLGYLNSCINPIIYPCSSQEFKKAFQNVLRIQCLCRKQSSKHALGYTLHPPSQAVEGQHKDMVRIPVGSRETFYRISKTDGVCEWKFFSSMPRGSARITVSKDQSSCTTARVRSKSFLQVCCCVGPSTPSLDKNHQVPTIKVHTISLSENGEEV
Source text: (§1) Supplement jm1c02175_si_002.xlsx, sheet "SAFETYScan" | column: RC50 (uM); Max Response

ADRA2A = biological target: T2, ADRA2A (Homo sapiens, UniProt P08913); experiment: SAFETYScan GPCR cAMP, Antagonist; type: cell-based
T2 construct: expressed in transfected cells
T2 sequence (P08913 1-465): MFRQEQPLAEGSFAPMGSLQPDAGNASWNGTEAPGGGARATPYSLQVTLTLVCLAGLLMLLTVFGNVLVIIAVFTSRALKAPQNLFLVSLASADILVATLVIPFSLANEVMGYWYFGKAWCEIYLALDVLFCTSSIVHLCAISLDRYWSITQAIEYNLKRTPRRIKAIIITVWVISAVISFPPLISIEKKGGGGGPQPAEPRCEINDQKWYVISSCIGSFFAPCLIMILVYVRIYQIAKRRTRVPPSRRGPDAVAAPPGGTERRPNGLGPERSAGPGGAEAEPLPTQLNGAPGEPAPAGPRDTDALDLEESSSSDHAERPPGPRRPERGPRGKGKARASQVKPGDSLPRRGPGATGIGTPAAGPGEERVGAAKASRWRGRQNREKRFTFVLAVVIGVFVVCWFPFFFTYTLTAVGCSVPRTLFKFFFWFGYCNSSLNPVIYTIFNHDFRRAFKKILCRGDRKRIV
Source text: as §1

ADRB2 = biological target: T3, ADRB2 (Homo sapiens, UniProt P07550); experiment: SAFETYScan GPCR cAMP, Antagonist; type: cell-based
T3 construct: expressed in transfected cells
Source text: as §1

CHRM2 = biological target: T4, CHRM2 (Homo sapiens, UniProt P08172); experiment: SAFETYScan GPCR cAMP, Antagonist; type: cell-based
T4 construct: expressed in transfected cells
T4 sequence (P08172 1-466): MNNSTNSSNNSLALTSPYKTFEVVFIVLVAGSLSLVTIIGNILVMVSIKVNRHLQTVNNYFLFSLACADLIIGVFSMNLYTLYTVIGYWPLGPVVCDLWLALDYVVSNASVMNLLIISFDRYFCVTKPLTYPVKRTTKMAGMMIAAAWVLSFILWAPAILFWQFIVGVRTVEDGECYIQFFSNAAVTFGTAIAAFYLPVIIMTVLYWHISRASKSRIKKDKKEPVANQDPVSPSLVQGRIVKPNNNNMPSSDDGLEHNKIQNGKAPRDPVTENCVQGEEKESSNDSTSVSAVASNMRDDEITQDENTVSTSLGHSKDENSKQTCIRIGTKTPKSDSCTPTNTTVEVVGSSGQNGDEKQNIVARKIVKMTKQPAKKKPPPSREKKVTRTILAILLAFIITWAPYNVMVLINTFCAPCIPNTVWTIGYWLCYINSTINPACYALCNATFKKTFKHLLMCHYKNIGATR
Source text: as §1

CNR1 = biological target: T5, CNR1 (Homo sapiens, UniProt P21554); experiment: SAFETYScan GPCR cAMP, Antagonist; type: cell-based
T5 construct: expressed in transfected cells
Source text: as §1

CNR2 = biological target: T6, CNR2 (Homo sapiens, UniProt P34972); experiment: SAFETYScan GPCR cAMP, Antagonist; type: cell-based
T6 construct: expressed in transfected cells
Source text: as §1

DRD2S = biological target: T7, DRD2S (Homo sapiens, UniProt P14416); experiment: SAFETYScan GPCR cAMP, Antagonist; type: cell-based
T7 construct: expressed in transfected cells
Source text: as §1

HRH2 = biological target: T8, HRH2 (Homo sapiens, UniProt P25021); experiment: SAFETYScan GPCR cAMP, Antagonist; type: cell-based
T8 construct: expressed in transfected cells
Source text: as §1

HTR1B = biological target: T9, HTR1B (Homo sapiens, UniProt P28222); experiment: SAFETYScan GPCR cAMP, Antagonist; type: cell-based
T9 construct: expressed in transfected cells
Source text: as §1

OPRD1 = OPRD1 (Homo sapiens, UniProt P41143); experiment: SAFETYScan GPCR cAMP, Antagonist; type: cell-based
Source text: as §1

OPRK1 = OPRK1 (Homo sapiens, UniProt P41145); experiment: SAFETYScan GPCR cAMP, Antagonist; type: cell-based
Source text: as §1

OPRM1 = OPRM1 (Homo sapiens, UniProt P35372); experiment: SAFETYScan GPCR cAMP, Antagonist; type: cell-based
Source text: as §1

T9 sequence (P28222 whole entry): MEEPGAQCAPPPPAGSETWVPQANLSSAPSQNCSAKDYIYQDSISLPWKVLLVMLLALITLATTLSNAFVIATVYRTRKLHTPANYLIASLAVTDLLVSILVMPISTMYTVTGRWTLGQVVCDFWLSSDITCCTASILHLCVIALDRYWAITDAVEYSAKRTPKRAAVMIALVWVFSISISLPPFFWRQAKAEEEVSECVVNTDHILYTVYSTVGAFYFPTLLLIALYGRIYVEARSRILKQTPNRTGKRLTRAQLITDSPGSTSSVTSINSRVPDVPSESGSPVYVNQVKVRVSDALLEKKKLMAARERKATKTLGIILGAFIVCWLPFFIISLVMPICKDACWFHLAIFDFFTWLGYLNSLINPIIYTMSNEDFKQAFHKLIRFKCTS
T3 sequence (P07550 whole entry): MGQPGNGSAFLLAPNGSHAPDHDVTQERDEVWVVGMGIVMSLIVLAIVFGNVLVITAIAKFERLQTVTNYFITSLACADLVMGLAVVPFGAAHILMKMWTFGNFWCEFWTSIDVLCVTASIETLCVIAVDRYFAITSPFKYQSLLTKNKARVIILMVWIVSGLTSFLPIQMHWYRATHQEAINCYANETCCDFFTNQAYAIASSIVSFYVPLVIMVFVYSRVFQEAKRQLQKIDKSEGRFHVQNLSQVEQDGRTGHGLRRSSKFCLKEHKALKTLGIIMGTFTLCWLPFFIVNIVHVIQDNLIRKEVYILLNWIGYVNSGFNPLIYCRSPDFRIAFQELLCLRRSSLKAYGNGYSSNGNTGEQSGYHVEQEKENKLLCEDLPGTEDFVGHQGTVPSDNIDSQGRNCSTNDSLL
T5 sequence (P21554 whole entry): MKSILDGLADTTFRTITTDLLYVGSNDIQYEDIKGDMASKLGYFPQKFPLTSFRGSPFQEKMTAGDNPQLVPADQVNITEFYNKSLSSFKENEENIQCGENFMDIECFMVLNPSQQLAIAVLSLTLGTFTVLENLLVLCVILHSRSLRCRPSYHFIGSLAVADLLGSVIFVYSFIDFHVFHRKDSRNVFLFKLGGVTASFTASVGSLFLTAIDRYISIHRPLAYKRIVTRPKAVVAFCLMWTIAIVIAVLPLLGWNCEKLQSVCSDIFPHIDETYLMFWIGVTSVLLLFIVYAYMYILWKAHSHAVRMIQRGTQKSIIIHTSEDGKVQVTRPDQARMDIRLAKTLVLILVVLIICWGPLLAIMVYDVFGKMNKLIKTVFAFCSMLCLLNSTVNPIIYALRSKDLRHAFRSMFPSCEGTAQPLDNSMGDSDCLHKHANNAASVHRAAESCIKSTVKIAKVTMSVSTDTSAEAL
Sequence of OPRK1 (P41145 whole entry, species assumed): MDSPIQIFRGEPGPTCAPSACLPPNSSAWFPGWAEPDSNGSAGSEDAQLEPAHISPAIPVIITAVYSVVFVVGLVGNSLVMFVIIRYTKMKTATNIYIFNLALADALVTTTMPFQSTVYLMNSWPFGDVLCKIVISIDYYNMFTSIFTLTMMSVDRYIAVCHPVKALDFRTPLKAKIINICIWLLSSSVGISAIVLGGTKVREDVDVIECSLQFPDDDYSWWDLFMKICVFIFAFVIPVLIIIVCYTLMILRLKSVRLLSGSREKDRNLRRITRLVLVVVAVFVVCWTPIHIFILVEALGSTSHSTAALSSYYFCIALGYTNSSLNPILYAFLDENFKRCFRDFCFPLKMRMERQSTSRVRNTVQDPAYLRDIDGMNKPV
T6 sequence (P34972 whole entry): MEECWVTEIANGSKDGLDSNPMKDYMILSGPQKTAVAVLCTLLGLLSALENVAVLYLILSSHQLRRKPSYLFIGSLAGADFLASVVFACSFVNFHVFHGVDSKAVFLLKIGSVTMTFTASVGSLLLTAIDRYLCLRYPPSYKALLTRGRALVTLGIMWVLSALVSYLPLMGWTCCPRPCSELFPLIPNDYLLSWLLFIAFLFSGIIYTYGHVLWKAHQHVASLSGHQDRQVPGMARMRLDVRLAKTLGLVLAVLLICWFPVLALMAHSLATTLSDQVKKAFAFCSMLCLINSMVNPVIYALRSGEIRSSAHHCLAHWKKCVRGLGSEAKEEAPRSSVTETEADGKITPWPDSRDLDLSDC
T7 sequence (P14416 1-414 isoform P14416-2): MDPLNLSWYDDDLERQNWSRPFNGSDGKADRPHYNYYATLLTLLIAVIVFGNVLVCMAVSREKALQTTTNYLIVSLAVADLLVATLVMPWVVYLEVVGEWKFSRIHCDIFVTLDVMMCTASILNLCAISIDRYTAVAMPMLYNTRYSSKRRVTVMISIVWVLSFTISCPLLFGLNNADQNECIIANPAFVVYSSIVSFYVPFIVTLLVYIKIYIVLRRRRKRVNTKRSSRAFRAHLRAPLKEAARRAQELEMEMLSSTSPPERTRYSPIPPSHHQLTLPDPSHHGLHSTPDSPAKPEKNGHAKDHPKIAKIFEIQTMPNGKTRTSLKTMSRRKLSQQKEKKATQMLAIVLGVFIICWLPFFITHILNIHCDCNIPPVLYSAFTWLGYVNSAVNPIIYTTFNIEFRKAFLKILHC
T8 sequence (P25021 whole entry): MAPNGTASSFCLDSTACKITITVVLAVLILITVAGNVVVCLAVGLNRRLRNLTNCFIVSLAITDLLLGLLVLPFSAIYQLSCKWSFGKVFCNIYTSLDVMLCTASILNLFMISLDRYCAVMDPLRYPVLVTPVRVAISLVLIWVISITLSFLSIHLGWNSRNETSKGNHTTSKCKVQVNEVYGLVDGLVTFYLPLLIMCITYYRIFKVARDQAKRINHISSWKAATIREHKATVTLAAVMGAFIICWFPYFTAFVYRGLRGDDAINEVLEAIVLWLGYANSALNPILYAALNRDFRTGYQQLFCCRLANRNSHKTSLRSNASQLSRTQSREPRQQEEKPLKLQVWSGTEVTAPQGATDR
Sequence of OPRD1 (P41143 whole entry, species assumed): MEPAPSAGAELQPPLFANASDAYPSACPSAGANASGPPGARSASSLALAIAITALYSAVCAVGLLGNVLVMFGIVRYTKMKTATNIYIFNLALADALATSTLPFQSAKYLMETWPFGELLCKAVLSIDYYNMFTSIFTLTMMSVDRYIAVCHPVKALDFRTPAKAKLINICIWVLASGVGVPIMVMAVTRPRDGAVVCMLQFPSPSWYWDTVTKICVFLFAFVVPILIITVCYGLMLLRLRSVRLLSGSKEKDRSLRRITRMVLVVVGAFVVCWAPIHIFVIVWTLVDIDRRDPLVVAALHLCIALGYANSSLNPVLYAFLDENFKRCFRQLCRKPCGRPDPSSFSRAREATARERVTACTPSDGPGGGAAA
Sequence of OPRM1 (P35372 whole entry, species assumed): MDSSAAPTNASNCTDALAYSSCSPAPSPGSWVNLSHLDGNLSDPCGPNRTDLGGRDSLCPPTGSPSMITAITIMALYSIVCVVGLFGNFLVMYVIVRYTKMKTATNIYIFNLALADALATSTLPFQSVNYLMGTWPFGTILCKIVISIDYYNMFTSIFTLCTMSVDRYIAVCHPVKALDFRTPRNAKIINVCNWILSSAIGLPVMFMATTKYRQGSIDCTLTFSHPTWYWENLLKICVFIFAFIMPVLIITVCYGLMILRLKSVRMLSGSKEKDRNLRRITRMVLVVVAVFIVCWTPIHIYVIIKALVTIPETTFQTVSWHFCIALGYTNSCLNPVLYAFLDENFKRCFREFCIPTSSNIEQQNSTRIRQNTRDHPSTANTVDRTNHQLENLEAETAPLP

## C[C@H]1C[C@@H](O)CN(c2ncc(Cl)c(Nc3ccc4c(c3)c3c(c(=O)n4C)OCC(F)(F)[C@H](C4CC4)N3)n2)C1 [12a CCT373566, (S)-10-((5-Chloro-2-((3R,5S)-3-hydroxy-5-methylpiperidin-1-yl)pyrimidin-4-yl)amino)-2-cyclopropyl-3,3-difluoro-7-methyl-1,2,3,4-tetrahydro-[1,4]oxazepino[2,3-c]quinolin-6(7H)-one]
[1]
  microsomal CLint at 0.5 h, 1 µM: 116 µL/min/mg
ADRA1A; read-out: Max Response
  Emax: 5.05%
ADRA1A; read-out: RC50 (EC50)
  EC50: > 10 µM
ADRA2A; read-out: Max Response
  Emax: 0%
ADRA2A; read-out: RC50 (IC50)
  IC50: > 10 µM
ADRB2; read-out: Max Response
  Emax: 62.3%
ADRB2; read-out: RC50 (IC50)
  IC50: 1.74 µM
CHRM2; read-out: Max Response
  Emax: 30.1%
CHRM2; read-out: RC50 (IC50)
  IC50: > 10 µM
CNR1; read-out: Max Response
  Emax: 1.95%
CNR1; read-out: RC50 (IC50)
  IC50: > 10 µM
CNR2; read-out: Max Response
  Emax: 10.7%
CNR2; read-out: RC50 (IC50)
  IC50: > 10 µM
DRD2S; read-out: Max Response
  Emax: 28.7%
DRD2S; read-out: RC50 (IC50)
  IC50: > 10 µM
HRH2; read-out: Max Response
  Emax: 46.3%
HRH2; read-out: RC50 (IC50)
  IC50: > 10 µM
HTR1B; read-out: Max Response
  Emax: 5.08%
HTR1B; read-out: RC50 (IC50)
  IC50: > 10 µM
OPRD1; read-out: Max Response
  Emax: 0%
OPRD1; read-out: RC50 (IC50)
  IC50: > 10 µM
OPRK1; read-out: Max Response
  Emax: 1.28%
OPRK1; read-out: RC50 (IC50)
  IC50: > 10 µM
OPRM1; read-out: Max Response
  Emax: 9.16%
OPRM1; read-out: RC50 (IC50)
  IC50: > 10 µM
